Source: US10750743B2, “Pyridazinone herbicides” (E.I. DU PONT DE NEMOURS AND COMPANY, priority 2015, dated 2020)

How the values were obtained:
Format in all cases: in vivo
[1] = tested on: ragweed (common ragweed, Ambrosia elatior); test: Test A postemergence application, visual injury rating; conditions: 0 to 100 scale, 0 no effect, 100 complete control
How it was run: (§1)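 Seeds sown in a loam soil–sand blend received a directed preemergence soil spray of test chemical in a non-phytotoxic solvent mixture with surfactant. Postemergence plants were sprayed at 2 to 10 cm, one- to two-leaf stage. After approximately 10 d in greenhouse, injury was visually rated 0 (no effect) to 100 (complete control) against untreated controls.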

[2] = tested on: pigweed (Amaranthus retroflexus); test: as above; conditions: 0 to 100 scale, 0 no effect, 100 complete control
How it was run: as §1

[3] = tested on: blackgrass (Alopecurus myosuroides); test: as above; conditions: 0 to 100 scale, 0 no effect, 100 complete control
How it was run: as §1

corn (Zea mays) = test: as above; conditions: 0 to 100 scale, 0 no effect, 100 complete control
How it was run: as §1

kochia (Kochia scoparia) [4] = test: as above; conditions: 0 to 100 scale, 0 no effect, 100 complete control
How it was run: as §1

[5] = tested on: wheat (Triticum aestivum); test: as above; conditions: 0 to 100 scale, 0 no effect, 100 complete control
How it was run: as §1

[6] = tested on: barnyardgrass (Echinochloa crus-galli); test: as above; conditions: 0 to 100 scale, 0 no effect, 100 complete control
How it was run: as §1

[7] = tested on: foxtail, giant (giant foxtail, Setaria faberii); test: as above; conditions: 0 to 100 scale, 0 no effect, 100 complete control
How it was run: as §1

[8] = tested on: galium (catchweed bedstraw, Galium aparine); test: as above; conditions: 0 to 100 scale, 0 no effect, 100 complete control
How it was run: as §1

[9] = tested on: ryegrass, It. (Italian ryegrass, Lolium multiflorum); test: as above; conditions: 0 to 100 scale, 0 no effect, 100 complete control
How it was run: as §1

[10] = tested on: sedge, umbrella (small-flower umbrella sedge, Cyperus difformis); test: Test B flooded paddy test, visual rating; conditions: Flood, 250 g ai/ha, applied to paddy water, rated after 13 to 15 d
How it was run: (§2)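 Plants at the 2-leaf stage were flooded to 3 cm above soil, and test compounds were applied directly into the paddy water, which was held at that depth throughout. After 13 to 15 d in a greenhouse, injury was rated visually against untreated controls on a 0–100 scale (0 no effect, 100 complete control).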

rice (Oryza sativa) = test: Test B flooded paddy test, visual rating; conditions: Flood, 250 g ai/ha, applied to paddy water, rated after 13 to 15 d
How it was run: as §2

[11] = tested on: barnyardgrass (Echinochloa crus-galli); test: Test B flooded paddy test, visual rating; conditions: Flood, 250 g ai/ha, applied to paddy water, rated after 13 to 15 d
How it was run: as §2

[12] = tested on: ducksalad (Heteranthera limosa); test: Test B flooded paddy test, visual rating; conditions: Flood, 250 g ai/ha, applied to paddy water, rated after 13 to 15 d
How it was run: as §2

[13] = tested on: ragweed (common ragweed, Ambrosia elatior); test: Test A preemergence, directed soil spray, visual injury rating; conditions: 0 is no effect, 100 is complete control
How it was run: as §1

[14] = tested on: pigweed (Amaranthus retroflexus); test: as above; conditions: 0 is no effect, 100 is complete control
How it was run: as §1

kochia (Kochia scoparia) [15] = test: as above; conditions: 0 is no effect, 100 is complete control
How it was run: as §1

[16] = tested on: barnyardgrass (Echinochloa crus-galli); test: as above; conditions: 0 is no effect, 100 is complete control
How it was run: as §1

[17] = tested on: foxtail, giant (giant foxtail, Setaria faberii); test: as above; conditions: 0 is no effect, 100 is complete control
How it was run: as §1

[18] = tested on: ryegrass, It. (Italian ryegrass, Lolium multiflorum); test: as above; conditions: 0 is no effect, 100 is complete control
How it was run: as §1

| SMILES | Ragweed plant response rating ([1]; 125 g ai/ha) | Pigweed plant response rating ([2]; 125 g ai/ha) | Blackgrass plant response rating ([3]; 125 g ai/ha) | Corn plant response rating (corn (Zea mays); 125 g ai/ha) | Kochia plant response rating (kochia (Kochia scoparia) [4]; 125 g ai/ha) | Wheat plant response rating ([5]; 125 g ai/ha) | Barnyardgrass plant response rating ([6]; 125 g ai/ha) | Foxtail, Giant plant response rating ([7]; 125 g ai/ha) | Galium plant response rating ([8]; 125 g ai/ha) | Ryegrass, It. plant response rating ([9]; 125 g ai/ha) | Sedge, Umbrella plant response rating (0 to 100 scale, 0 is no effect, 100 is complete control) [10] | Rice plant response rating (0 to 100 scale, 0 is no effect, 100 is complete control) (rice (Oryza sativa)) | Barnyardgrass plant response rating (0 to 100 scale, 0 is no effect, 100 is complete control) [11] | Ducksalad plant response rating (0 to 100 scale, 0 is no effect, 100 is complete control) [12] | Plant response rating (0 to 100 scale), Ragweed ([13]; 125 g ai/ha) | Plant response rating (0 to 100 scale), Pigweed ([14]; 125 g ai/ha) | Plant response rating (0 to 100 scale), Kochia (kochia (Kochia scoparia) [15]; 125 g ai/ha) | Plant response rating (0 to 100 scale), Barnyardgrass ([16]; 125 g ai/ha) | Plant response rating (0 to 100 scale), Foxtail, Giant ([17]; 125 g ai/ha) | Plant response rating (0 to 100 scale), Ryegrass, It. ([18]; 125 g ai/ha) | also measured |
| --- | --- | --- | --- | --- | --- | --- | --- | --- | --- | --- | --- | --- | --- | --- | --- | --- | --- | --- | --- | --- | --- |
| Cc1nc2c(-c3c(O)c(C)nn(C)c3=O)cccc2s1 [Compound 27] | 0 | 0 | 0 | 0 | 0 | 0 | 0 | 20 | 0 | 20 | 0 | 0 | 0 | 0 | 20 | 0 | 0 | 0 | 0 | 30 | Ragweed plant response rating ([1]; 500 g ai/ha): 30; Pigweed plant response rating ([2]; 500 g ai/ha): 0; Blackgrass plant response rating ([3]; 500 g ai/ha): 30; Corn plant response rating (corn (Zea mays); 500 g ai/ha): 0; Kochia plant response rating (kochia (Kochia scoparia) [4]; 500 g ai/ha): 0; Wheat plant response rating ([5]; 500 g ai/ha): 0; Barnyardgrass plant response rating ([6]; 500 g ai/ha): 20; Foxtail, Giant plant response rating ([7]; 500 g ai/ha): 40; Galium plant response rating ([8]; 500 g ai/ha): 60; Ryegrass, It. plant response rating ([9]; 500 g ai/ha): 40; Plant response rating (0 to 100 scale), Ragweed ([13]; 500 g ai/ha): 20; Plant response rating (0 to 100 scale), Pigweed ([14]; 500 g ai/ha): 0; Plant response rating (0 to 100 scale), Kochia (kochia (Kochia scoparia) [15]; 500 g ai/ha): 0; Plant response rating (0 to 100 scale), Barnyardgrass ([16]; 500 g ai/ha): 0; Plant response rating (0 to 100 scale), Foxtail, Giant ([17]; 500 g ai/ha): 50; Plant response rating (0 to 100 scale), Ryegrass, It. ([18]; 500 g ai/ha): 40 |
| COC(=O)Oc1c(C)nn(C)c(=O)c1-c1cccc2cc(C)oc12 [Compound 28] | 60 | 40 | 30 | 0 | 40 | 0 | 10 | 20 | 80 | 60 | 0 | 0 | 0 | 0 | 30 | 0 | 20 | 0 | 0 | 70 | Ragweed plant response rating ([1]; 31 g ai/ha): 20; Pigweed plant response rating ([2]; 31 g ai/ha): 10; Blackgrass plant response rating ([3]; 31 g ai/ha): 0; Corn plant response rating (corn (Zea mays); 31 g ai/ha): 0; Kochia plant response rating (kochia (Kochia scoparia) [4]; 31 g ai/ha): 0; Wheat plant response rating ([5]; 31 g ai/ha): 0; Barnyardgrass plant response rating ([6]; 31 g ai/ha): 0; Foxtail, Giant plant response rating ([7]; 31 g ai/ha): 0; Galium plant response rating ([8]; 31 g ai/ha): 40; Ryegrass, It. plant response rating ([9]; 31 g ai/ha): 30; Plant response rating (0 to 100 scale), Ragweed ([13]; 31 g ai/ha): 0; Plant response rating (0 to 100 scale), Pigweed ([14]; 31 g ai/ha): 0; Plant response rating (0 to 100 scale), Kochia (kochia (Kochia scoparia) [15]; 31 g ai/ha): 0; Plant response rating (0 to 100 scale), Barnyardgrass ([16]; 31 g ai/ha): 0; Plant response rating (0 to 100 scale), Foxtail, Giant ([17]; 31 g ai/ha): 0; Plant response rating (0 to 100 scale), Ryegrass, It. ([18]; 31 g ai/ha): 20 |
| CCC(=O)Oc1c(C)nn(C)c(=O)c1-c1c(C)ccc2sccc12 [Compound 31] | 70 | 90 | 50 | 20 | 90 | 20 | 10 | 10 | 90 | 100 | 0 | 0 | 0 | 0 | 20 | 90 | 20 | 10 | 10 | 90 | Ragweed plant response rating ([1]; 500 g ai/ha): 80; Pigweed plant response rating ([2]; 500 g ai/ha): 90; Blackgrass plant response rating ([3]; 500 g ai/ha): 60; Corn plant response rating (corn (Zea mays); 500 g ai/ha): 40; Kochia plant response rating (kochia (Kochia scoparia) [4]; 500 g ai/ha): 100; Wheat plant response rating ([5]; 500 g ai/ha): 30; Barnyardgrass plant response rating ([6]; 500 g ai/ha): 60; Foxtail, Giant plant response rating ([7]; 500 g ai/ha): 80; Galium plant response rating ([8]; 500 g ai/ha): 100; Ryegrass, It. plant response rating ([9]; 500 g ai/ha): 100; Plant response rating (0 to 100 scale), Ragweed ([13]; 500 g ai/ha): 90; Plant response rating (0 to 100 scale), Pigweed ([14]; 500 g ai/ha): 100; Plant response rating (0 to 100 scale), Kochia (kochia (Kochia scoparia) [15]; 500 g ai/ha): 90; Plant response rating (0 to 100 scale), Barnyardgrass ([16]; 500 g ai/ha): 90; Plant response rating (0 to 100 scale), Foxtail, Giant ([17]; 500 g ai/ha): 90; Plant response rating (0 to 100 scale), Ryegrass, It. ([18]; 500 g ai/ha): 100 |
| Cc1nn(C)c(=O)c(-c2cccc3sccc23)c1O [Compound 32] | 0 | 30 | 0 | 0 | 20 | 0 | 0 | 0 | 40 | 70 | 50 | 0 | 0 | 40 | 0 | 40 | 30 | 20 | 10 | 70 | Ragweed plant response rating ([1]; 500 g ai/ha): 40; Pigweed plant response rating ([2]; 500 g ai/ha): 30; Blackgrass plant response rating ([3]; 500 g ai/ha): 30; Corn plant response rating (corn (Zea mays); 500 g ai/ha): 0; Kochia plant response rating (kochia (Kochia scoparia) [4]; 500 g ai/ha): 70; Wheat plant response rating ([5]; 500 g ai/ha): 20; Barnyardgrass plant response rating ([6]; 500 g ai/ha): 50; Foxtail, Giant plant response rating ([7]; 500 g ai/ha): 40; Galium plant response rating ([8]; 500 g ai/ha): 80; Ryegrass, It. plant response rating ([9]; 500 g ai/ha): 90; Plant response rating (0 to 100 scale), Ragweed ([13]; 500 g ai/ha): 80; Plant response rating (0 to 100 scale), Pigweed ([14]; 500 g ai/ha): 100; Plant response rating (0 to 100 scale), Kochia (kochia (Kochia scoparia) [15]; 500 g ai/ha): 40; Plant response rating (0 to 100 scale), Barnyardgrass ([16]; 500 g ai/ha): 40; Plant response rating (0 to 100 scale), Foxtail, Giant ([17]; 500 g ai/ha): 50; Plant response rating (0 to 100 scale), Ryegrass, It. ([18]; 500 g ai/ha): 100 |
| CCC(=O)Oc1c(C)nn(C)c(=O)c1-c1ccc(Cl)c2ccsc12 [Compound 36] | 0 | 30 | 0 | 0 | 30 | 0 | 10 | 0 | 100 | 80 | 80 | 0 | 0 | 0 | 0 | 90 | 0 | 0 | 0 | 90 | Ragweed plant response rating ([1]; 31 g ai/ha): 0; Pigweed plant response rating ([2]; 31 g ai/ha): 0; Blackgrass plant response rating ([3]; 31 g ai/ha): 0; Corn plant response rating (corn (Zea mays); 31 g ai/ha): 0; Kochia plant response rating (kochia (Kochia scoparia) [4]; 31 g ai/ha): 20; Wheat plant response rating ([5]; 31 g ai/ha): 0; Barnyardgrass plant response rating ([6]; 31 g ai/ha): 0; Foxtail, Giant plant response rating ([7]; 31 g ai/ha): 0; Galium plant response rating ([8]; 31 g ai/ha): 90; Ryegrass, It. plant response rating ([9]; 31 g ai/ha): 30; Plant response rating (0 to 100 scale), Ragweed ([13]; 31 g ai/ha): 0; Plant response rating (0 to 100 scale), Pigweed ([14]; 31 g ai/ha): 0; Plant response rating (0 to 100 scale), Kochia (kochia (Kochia scoparia) [15]; 31 g ai/ha): 0; Plant response rating (0 to 100 scale), Barnyardgrass ([16]; 31 g ai/ha): 0; Plant response rating (0 to 100 scale), Foxtail, Giant ([17]; 31 g ai/ha): 0; Plant response rating (0 to 100 scale), Ryegrass, It. ([18]; 31 g ai/ha): 20 |
